Data taken from patent US20150148256A1, “BIOLUMINESCENCE IMAGING-BASED SCREENING ASSAY AND INHIBITORS OF ABCG2” (THE JOHNS HOPKINS UNIVERSITY, priority 2008, published 2015).
pIC50: −log10 of the molar value. Where a name gives a salt, the structure may show the parent alone. Read-outs that look alike come from different tables or passages of the source.

Experiments:
ABCG2 = molecular target: T1, ABCG2 (Homo sapiens, UniProt Q9UNQ0); assay: Bioluminescence imaging (BLI) assay in HEK293/ABCG2/fLuc cells
T1 sequence (Q9UNQ0 1-655): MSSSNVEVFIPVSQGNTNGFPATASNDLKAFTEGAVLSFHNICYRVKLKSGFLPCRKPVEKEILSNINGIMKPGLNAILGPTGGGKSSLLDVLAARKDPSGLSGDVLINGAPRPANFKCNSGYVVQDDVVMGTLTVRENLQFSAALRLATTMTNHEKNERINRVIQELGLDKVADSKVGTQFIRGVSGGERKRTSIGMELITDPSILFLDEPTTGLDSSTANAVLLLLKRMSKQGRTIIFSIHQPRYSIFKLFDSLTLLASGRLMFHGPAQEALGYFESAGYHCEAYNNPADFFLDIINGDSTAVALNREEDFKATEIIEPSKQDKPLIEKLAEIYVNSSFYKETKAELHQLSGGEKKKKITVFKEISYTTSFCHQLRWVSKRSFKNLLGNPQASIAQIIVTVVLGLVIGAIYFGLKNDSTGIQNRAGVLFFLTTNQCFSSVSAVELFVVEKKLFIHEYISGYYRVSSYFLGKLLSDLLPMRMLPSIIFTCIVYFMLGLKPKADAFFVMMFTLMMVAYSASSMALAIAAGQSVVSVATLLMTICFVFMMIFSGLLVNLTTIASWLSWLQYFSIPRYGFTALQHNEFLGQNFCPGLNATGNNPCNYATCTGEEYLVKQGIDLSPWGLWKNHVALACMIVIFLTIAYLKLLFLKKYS
Procedure: HEK293/ABCG2/fLuc cells were plated into 96-well plates at a density of 4×10^4 cells/100 μL per well and were allowed to attach overnight. The following day, 10 μL of each compound or the control solvent was transferred from a compound library in a 96-well, high-throughput format into the wells using a multichannel pipette. […] Images were taken every 5 minutes for ˜1 h. Light output from each well was quantified at the 40 min time point after initiation of imaging, and the signal-to-background (S/B) ratio of the light output from each compound divided by that from the control well was calculated. This S/B ratio serves as an indicator of the potency of ABCG2 inhibition, the mechanism by which BLI signal is enhanced.
Images were taken every 5 min for ˜1 h, and light output from each well at the 40 min time point was chosen for quantification. The SB ratio of the light output from each compound divided by that from the control well was calculated. This ratio was used as an indicator of the potency of ABCG2 inhibition, the mechanism by which BLI signal is enhanced.
The BLI signal-enhancing effect of selected ABCG2 inhibitors was evaluated within the range of 0.001 μM-100 μM, with HEK293/ABCG2/fLuc cells and 50 μg/mL D-luciferin. The data obtained at 40 min after imaging commencement were chosen arbitrarily to be plotted (FIG. 3).

[1] = test system: ABCG2-overexpressing NCI-H460/MX20 cells; conditions: for MTX (mitoxantrone resensitization assay): H460/MX20 cells with MTX
[2] = Table 2, HEK293/ABCG2/fLuc cells, compound approximately 17 μM, ~50 μg/mL D-luciferin, 40 min time point
[3] = Table 4, approximately 17 μM, 40 min time point

Row | Molecule | Fold (BLI enhancement, S/B ratio over control) (ABCG2; human, 40 min, 17 μM) | also measured
1 | CCCCNc1c(C(=O)OCC)c(C)nc2c1cnn2CC [tracazolate] | 20.0 fold | Fold (BLI enhancement), previously unknown compounds (ABCG2; human, 40 min, 17 μM): 20 fold; MTX (mitoxantrone resensitization assay) [1]: Y
2 | CC(C)C(=O)Nc1ccc([N+](=O)[O-])c(C(F)(F)F)c1 [flutamide] | 6.1 fold | Fold (BLI enhancement), previously unknown compounds (ABCG2; human, 40 min, 17 μM): 6.1 fold; MTX (mitoxantrone resensitization assay) [1]: Y
3 | acetophenazine maleate |  | MTX (mitoxantrone resensitization assay) [1]: Y
4 | CCCCCCCCCCCCOCCOCCOCCOCCO [brij, Brij 30] |  | resensitization of H460/MX20 cells to MTX ([1]; after two days of incubation (data not shown)): resensitize H460/MX20 cells to MTX significantly
5 | Cc1cc2nc3c(=O)[nH]c(=O)nc-3n(C[C@H](O)[C@H](O)[C@H](O)CO)c2cc1C [riboflavin] | 5.4 fold | Fold (BLI enhancement), known compounds (ABCG2; human, 40 min, 17 μM): 5.4 fold; MTX (mitoxantrone resensitization assay) [1]: Y
6 | O=C1CCc2cc(OCCCCc3nnnn3C3CCCCC3)ccc2N1 [cilostazol] | 3.8 fold | 
7 | Cc1ccc(C(=O)C(C)CN2CCCCC2)cc1 (stereo not drawn) [tolperisone hydrochloride] | 2.1 fold | 
8 | COc1ccc(C(=O)c2c(C)n(CCN3CCOCC3)c3ccccc23)cc1 [pravadoline] |  | Fold (BLI enhancement, S/B ratio over control) (ABCG2; [2]): 2.7 fold
9 | CCCCCCn1c(=O)c2c(ncn2C)n(C)c1=O [pentifylline] | 3.8 fold | 
10 | CC[C@H]1/C=C/C=C/C[C@@H](C)[C@H](O)[C@@](C)(O)C(=O)[C@@H](C)[C@H](O)[C@@H](C)C(=O)[C@@H](C)[C@H](O)[C@@H](C)/C=C/C(=O)O[C@@H]2[C@H](C)[C@H](CC1)O[C@]1(CC[C@H](C)[C@H](C[C@@H](C)O)O1)[C@H]2C [oligomycin] |  | Fold (BLI enhancement, S/B ratio over control) (ABCG2; [2]): 5.0 fold; Fold (BLI enhancement), previously unknown compounds (ABCG2; [3]): 5.0 fold
11 | CO[C@]12C[C@@H](COC(=O)c3cncc(Br)c3)CN(C)[C@@H]1Cc1cn(C)c3cccc2c13 [nicergoline] | 2.0 fold | 
12 | COc1ccc(Cc2nccc3cc(OC)c(OC)cc23)cc1OC [papaverine hydrochloride] |  | Fold (BLI enhancement, S/B ratio over control) (ABCG2; human): 2.0 fold
13 | Cc1nccn1CC1CCc2c(c3ccccc3n2C)C1=O (stereo not drawn) [ondansetron hydrochloride] | 2.7 fold | 
14 | CCCn1c(=O)c2[nH]c(C3CCCC3)nc2n(CCC)c1=O [1,3-dipropyl-8-cyclopentylxanthine] | 4.3 fold | 
15 | CC(=O)[C@H]1CC[C@H]2[C@@H]3C[C@H](C)C4=CC(=O)CC[C@]4(C)[C@H]3[C@@H](O)C[C@]12C [medrysone] | 2.3 fold | 
16 | COCCOC(=O)C1=C(C)NC(C)=C(C(=O)OC(C)C)C1c1cccc([N+](=O)[O-])c1 (stereo not drawn) [nimodipine] | 2.8 fold | fold (BLI enhancement), additional previously known ABCG2 inhibitors (ABCG2; human, 40 min, 17 μM): 2.8 fold
17 | COC(=O)Nc1nc2ccc([S+]([O-])c3ccccc3)cc2[nH]1 (stereo not drawn) [oxfendazole] | 2.1 fold | 
18 | FC(F)(F)c1ccc2c(c1)N(CCCN1CCN(CCCl)CC1)c1ccccc1S2 [fluphenazine N-mustard] |  | Fold (BLI enhancement, S/B ratio over control) (ABCG2): 3.6 fold
19 | OCc1cc(C(O)CNCCCCCCOCCCCc2ccccc2)ccc1O (stereo not drawn) [salmeterol xinafoate] | 2.4 fold | 
20 | CN1CCCC(n2nc(Cc3ccc(Cl)cc3)c3ccccc3c2=O)CC1 (stereo not drawn) [azelastine hydrochloride] | 2.4 fold | 
21 | CC(=O)[C@@]1(O)CC[C@H]2[C@@H]3C=C(Cl)C4=CC(=O)[C@@H]5C[C@@H]5[C@]4(C)[C@H]3CC[C@@]21C [cyproterone] |  | Fold (BLI enhancement, S/B ratio over control) (ABCG2; [2]): 2.0 fold
22 | CC1=NCCc2c1[nH]c1cc(O)ccc21.Cl [harmalol hydrochloride] |  | Fold (BLI enhancement, S/B ratio over control) (ABCG2; human): 2.9 fold
23 | CC(C)c1nc(N(C)S(C)(=O)=O)nc(-c2ccc(F)cc2)c1/C=C/[C@@H](O)C[C@@H](O)CC(=O)O [rosuvastatin] | 3.9 fold | 
24 | COC(=O)C1=C(C)NC(C)=C(C(=O)OCCCN2CCC(c3ccccc3)(c3ccccc3)CC2)[C@H]1c1cccc([N+](=O)[O-])c1 [niguldipine] |  | Fold (BLI enhancement), known compounds (ABCG2; human): 5.9 fold; Fold (BLI enhancement, S/B ratio over control) (ABCG2; human): 5.9 fold
25 | CCCC(=O)O[C@]1(C(=O)COC(C)=O)CC[C@H]2[C@@H]3C[C@H](F)C4=CC(=O)C=C[C@]4(C)[C@@]3(F)[C@@H](O)C[C@@]21C [difluprednate] | 2.0 fold | 

Row | Molecule | Fold (BLI enhancement, S/B ratio over control) (ABCG2; human, 40 min, 17 μM) | also measured
26 | ivermect n |  | Fold (BLI enhancement, S/B ratio over control) (ABCG2; [2]): 4.3 fold
27 | COc1cc2nc(N3CCN(C(=O)C4COc5ccccc5O4)CC3)nc(N)c2cc1OC (stereo not drawn) [doxazosin mesylate] |  | pIC50 (ABCG2): 5.10; BLI signal enhancement (ABCG2; human, 40 min, 17 μM): 16 fold
28 | COc1cc([S+](C)[O-])ccc1-c1nc2ncccc2[nH]1 (stereo not drawn) [sulmazole] | 3.0 fold | 
29 | O=c1[nH]c2ccccc2n1CCCN1CCC(n2c(=O)[nH]c3cc(Cl)ccc32)CC1 [domperidone] | 2.5 fold | 
30 | COc1ccc2cc3[n+](cc2c1OC)CCc1cc2c(cc1-3)OCO2.O=S(=O)([O-])O [berberine bisulfate] |  | Fold (BLI enhancement, S/B ratio over control) (ABCG2; [2]): 2.2 fold
31 | hesperidin methyl chalcone |  | Fold (BLI enhancement, S/B ratio over control) (ABCG2; [2]): 2.1 fold
32 | COc1c2occc2c(OC)c2c(=O)cc(C)oc12 [khellin] | 3.4 fold | 
33 | CCCc1nc2c(C)cc(-c3nc4ccccc4n3C)cc2n1Cc1ccc(-c2ccccc2C(=O)O)cc1 [telmisartan] | 2.0 fold | 
34 | O=C(O)CCCc1ccccc1 [phenylbutyric acid] |  | Fold (BLI enhancement, S/B ratio over control) (ABCG2; [2]): 2.1 fold
35 | CCN(CCCCOC(=O)c1ccc(OC)c(OC)c1)C(C)Cc1ccc(OC)cc1 (stereo not drawn) [mebeverine hydrochloride] | 3.2 fold | 
36 | CCCCCNC(=N)N/N=C/c1c[nH]c2ccc(OC)cc12 [tegaserod maleate] | 3.1 fold | 
37 | CC(=O)O[C@]1(C(C)=O)CC[C@H]2[C@@H]3C=C(C)C4=CC(=O)CC[C@]4(C)[C@H]3CC[C@@]21C [megestrol acetate] | 2.1 fold | 
38 | COC(=O)Nc1nc2cc(C(=O)c3ccc(F)cc3)ccc2[nH]1 [flubendazole] | 6.3 fold | Fold (BLI enhancement), previously unknown compounds (ABCG2; human, 40 min, 17 μM): 6.3 fold
39 | CN1[C@@H]2CC[C@H]1C[C@@H](OC(c1ccccc1)c1ccccc1)C2.CS(=O)(=O)O [benztropin Methane-] |  | Fold (BLI enhancement, S/B ratio over control) (ABCG2; [2]): 2.0 fold
40 | COc1cc(-c2oc3cc(O)cc(O)c3c(=O)c2O)ccc1O [isorhamnetin] |  | Fold (BLI enhancement, S/B ratio over control) (ABCG2; [2]): 7.0 fold; Fold (BLI enhancement), previously unknown compounds (ABCG2; [3]): 7.0 fold
41 | CC(=O)SCC(Cc1ccccc1)C(=O)NCC(=O)OCc1ccccc1 (stereo not drawn) [racecadotril] | 2.0 fold | 
42 | OCCN1CCN(CCCN2c3ccccc3Sc3ccc(Cl)cc32)CC1 [perphenazine] | 4.2 fold | 
43 | CC(=O)Oc1ccc2c(c1)CCC1C2CC[C@]2(C)C(=O)CCC12 (stereo partly drawn) [estrone acetate] | 4.1 fold | 
44 | Clc1ccc(COC(Cn2ccnc2)c2ccc(Cl)cc2Cl)cc1 (stereo not drawn) [econazole] | 2.5 fold | 
45 | Cc1ccc(-c2cc(C(F)(F)F)nn2-c2ccc(S(N)(=O)=O)cc2)cc1 [celecoxib] | 2.2 fold | 
46 | OCCN1CCN(CCCN2c3ccccc3Sc3ccc(C(F)(F)F)cc32)CC1 [fluphenazine] | 2.0 fold | 
47 | COc1ccc(/C=C/C(=O)c2ccc(OC)cc2OC)cc1 [metochalcone] | 2.8 fold | 
48 | CCC(=O)O[C@]1(C(=O)CCl)[C@@H](C)C[C@H]2[C@@H]3CCC4=CC(=O)C=C[C@]4(C)[C@@]3(F)[C@@H](O)C[C@@]21C [clobetasol propionate] | 3.3 fold | 
49 | Cc1cc(O)c2c(c1)C(=O)c1cc(O)cc(O)c1C2=O [emodin] | 6.4 fold | Fold (BLI enhancement), previously unknown compounds (ABCG2; human, 40 min, 17 μM): 6.4 fold
50 | C#C[C@]1(O)CC[C@H]2[C@@H]3CCc4cc(O)ccc4[C@H]3CC[C@@]21C [ethinyl estradiol] | 2.4 fold | 
